From patent US7901893B2, “NPC1L1 (NPC3) and methods of identifying ligands thereof” (Merck Sharp & Dohme Corp., priority 2004, dated 2011)

Experiments:
[1] = test system: human, mouse or rat NPC1L1-CHO overexpressing membranes; experiment: SPA assay; format: binding; settings: 0.1 nM ligand
Procedure: For each well of a 96 well plate, a reaction mixture of 10 μg human, mouse or rat NPC1L1-CHO overexpressing membranes (Biosignal) and 200 μg/well YSi-WGA-SPA beads (Amersham) in 100 μl is prepared in NPC1L1 assay buffer (25 mM HEPES, pH 7.8, 2 mM CaCl2, 1 mM MgCl2, 125 mM NaCl, 0.1% BSA). A 0.4 nM stock of ligand-[^125I]-ezetimibe- is prepared in the NPC1L1 assay buffer. The above solutions are added to a 96-well assay plate as follows: 50 μl NPC1L1 assay buffer, 100 μl of reaction mixture, 50 μl of ligand stock (final ligand concentration is 0.1 nM). The assay plates are shaken for 5 minutes on a plate shaker, then incubated for 8 hours before cpm/well are determined in Microbeta Trilux counter (PerkinElmer).

[2] = test system: CHO background (no transfection); experiment: Effect of ezetimibe on cholesterol uptake, CHO background; format: cell-based, chinese hamster; settings: EZ (10 μM), CHO Control
Procedure: (§1) The effect of ezetimibe on the ability of CHO cells stably transfected with mouse or rat NPC1L1 or mouse SR-B1 to take up ^3H-labeled cholesterol was evaluated in pulse-chase experiments. One cDNA clone of mouse NPC1L1 (C7) and three clones of rat NPC1L1 (C7, C17 and C21) were evaluated. The ability of CHO cells stably transfected with mouse SR-B1, mouse NPC1L1 and rat NPC1L1 to take up labeled cholesterol, in the absence of ezetimibe, was also evaluated in the pulse-chase experiments. Data generated in these experiments are set forth, below, in Tables 4 and 5. Additionally, the quantity of total cholesterol taken up by transfected and untransfected CHO cells in the presence of four different unlabeled cholesterol concentrations was also evaluated.
(§2) Starve. The maintenance media (F12 HAMS, 1% Pen/Strep, 10% FCS) was removed and the cells were rinsed with serum-free HAMS media. The serum-free media was then replaced with 1 mL “starve” media (F12 HAMS, Pen/Strep, 5% lipoprotein deficient serum (LPDS). The cells were then starved overnight.
(§3) Pre-Incubation/pre-dose. Media was removed from all plates and replaced with fresh starve media and preincubated for 30 minutes. Half of the wells received media containing ezetimibe (stock soln in EtOH; final conc.=10 μM).
(§4) ^3H-Cholesterol Pulse. The following was added directly to each well: • 0.5 μCi ^3H-cholesterol (˜1.1×10^6 dpm/well) in 50 μl of a mixed bile salt micelle • 4.8 mM sodium taurocholate (2.581 mg/mL) • 0.6 mM sodium oleate (0.183 mg/mL) • 0.25 mM cholesterol (0.1 mg/mL) • Dispersed in “starve” media by ultrasonic vibration • Final media cholesterol concentration=5 μg/mL
(§5) Labeled cholesterol pulse time points were 4, 12, 24 minutes and 4 hours. Triplicate wells were prepared for each treatment.
(§6) Wash. At designated times, media was aspirated and cells were washed once with Hobbs Buffer A (50 mM Tris, 0.9% NaCl, 0.2% bovine serum albumin (BSA), pH 7.4) and once with Hobbs Buffer B (50 mM Tris, 0.9% NaCl, pH 7.4 (no BSA)) at 37° C.
(§7) A. 4, 12, 24 minute time points: Cells were digested overnight with 0.2N NaOH, 2 mL/well, room temperature. One 1.5 mL aliquot was removed from each well, neutralized & counted for radioactivity by scintillation counting.
(§8) B. 4 hour time point: The digested cells were analyzed by thin-layer chromatography to determine the content of cholesterol ester in the cells.
(§9) Extracts were spotted onto TLC plates and run for 30 minutes in 2 ml hexane:isopropanol (3:2) mobile phase for 30 minutes, followed by a second run in 1 ml hexane:isopropanol (3:2) mobile phase for 15 minutes.
(§10) C. Protein determination of cell extracts. Plates containing a sample of the cell extracts were placed on orbital shaker at 120 rpm for indicated times and then extracts are pooled into 12×75 tubes. Plates were dried and NaOH (2 ml/well) added. The protein content of the samples were then determined. Two additional 50 μl aliquots from all wells were assayed for total protein by the Pierce micro BCA method. The quantity of labeled cholesterol observed in the cells was normalized to the quantity of protein in the cells.

[3] = biological target: rat NPC1L1 (Rattus norvegicus, UniProt Q6T3U3); experiment: Effect of ezetimibe on cholesterol uptake, rat NPC1L1 transfected CHO cells; format: cell-based; set-up: expressed in transfected cells; pCDNA3); settings: EZ (10 μM); for Cholesteryl Ester, dpm ± sem / Cholesteryl Ester, dpm/mg protein ± sem / Free Cholesterol, dpm ± sem / Free Cholesterol, dpm/mg protein ± sem: 4 Hour Pulse
Procedure: as §1, §2, §3, §4, §5, §6, §7, §8, §9, §10

O=C1[C@H](CC[C@H](O)c2ccc(F)cc2)[C@@H](c2ccc(O)cc2)N1c1ccc(F)cc1 [ezetimibe]
binding to cell membranes expressing human, mouse or rat NPC1L1 [1]: binds
Cholesteryl Ester, dpm ± sem ([2]; 4 Hour Pulse): 208 ± 9 dpm
Cholesteryl Ester, dpm/mg protein ± sem ([2]; 4 Hour Pulse): 1902 ± 87 dpm/mg protein
Free Cholesterol, dpm ± sem ([2]; 4 Hour Pulse): 56792 ± 568 dpm
Free Cholesterol, dpm/mg protein ± sem ([2]; 4 Hour Pulse): 519607 ± 16203 dpm/mg protein
Total Cholesterol, dpm ± sem ([2]; 4 Min Pulse): 3222 ± 26 dpm
Total Cholesterol, dpm/mg protein ± sem ([2]; 4 Min Pulse): 31881 ± 483 dpm/mg protein
Total Cholesterol, dpm ± sem ([2]; 12 Min Pulse): 4532 ± 165 dpm
Total Cholesterol, dpm/mg protein ± sem ([2]; 12 Min Pulse): 43391 ± 1197 dpm/mg protein
Total Cholesterol, dpm ± sem ([2]; 24 Min Pulse): 6678 ± 215 dpm
Total Cholesterol, dpm/mg protein ± sem ([2]; 24 Min Pulse): 61764 ± 2131 dpm/mg protein
Cholesteryl Ester, dpm ± sem ([3]; rNPC1L1(C7)): 191 ± 54 dpm
Cholesteryl Ester, dpm/mg protein ± sem ([3]; rNPC1L1(C7)): 1496 ± 403 dpm/mg protein
Free Cholesterol, dpm ± sem ([3]; rNPC1L1(C7)): 70628 ± 212 dpm
Free Cholesterol, dpm/mg protein ± sem ([3]; rNPC1L1(C7)): 556855 ± 7481 dpm/mg protein
Cholesteryl Ester, dpm ± sem ([3]; rNPC1L1(C17)): 202 ± 10 dpm
Cholesteryl Ester, dpm/mg protein ± sem ([3]; rNPC1L1(C17)): 1510 ± 62 dpm/mg protein
Free Cholesterol, dpm ± sem ([3]; rNPC1L1(C17)): 71646 ± 446 dpm
Free Cholesterol, dpm/mg protein ± sem ([3]; rNPC1L1(C17)): 536651 ± 7146 dpm/mg protein
Cholesteryl Ester, dpm ± sem ([3]; rNPC1L1(C21)): 454 ± 33 dpm
Cholesteryl Ester, dpm/mg protein ± sem ([3]; rNPC1L1(C21)): 3193 ± 265 dpm/mg protein
Free Cholesterol, dpm ± sem ([3]; rNPC1L1(C21)): 69106 ± 711 dpm
Free Cholesterol, dpm/mg protein ± sem ([3]; rNPC1L1(C21)): 485460 ± 4410 dpm/mg protein
Total Cholesterol, dpm ± sem ([3]; 4 Min Pulse, rNPC1L1(C7)): 3268 ± 121 dpm
Total Cholesterol, dpm/mg protein ± sem ([3]; 4 Min Pulse, rNPC1L1(C7)): 27285 ± 968 dpm/mg protein
Total Cholesterol, dpm ± sem ([3]; 4 Min Pulse, rNPC1L1(C17)): 3676 ± 134 dpm
Total Cholesterol, dpm/mg protein ± sem ([3]; 4 Min Pulse, rNPC1L1(C17)): 28675 ± 527 dpm/mg protein
Total Cholesterol, dpm ± sem ([3]; 4 Min Pulse, rNPC1L1(C21)): 3769 ± 147 dpm
Total Cholesterol, dpm/mg protein ± sem ([3]; 4 Min Pulse, rNPC1L1(C21)): 27098 ± 689 dpm/mg protein
Total Cholesterol, dpm ± sem ([3]; 12 Min Pulse, rNPC1L1(C7)): 4664 ± 63 dpm
Total Cholesterol, dpm/mg protein ± sem ([3]; 12 Min Pulse, rNPC1L1(C7)): 38581 ± 784 dpm/mg protein
Total Cholesterol, dpm ± sem ([3]; 12 Min Pulse, rNPC1L1(C17)): 4579 ± 257 dpm
Total Cholesterol, dpm/mg protein ± sem ([3]; 12 Min Pulse, rNPC1L1(C17)): 34063 ± 1619 dpm/mg protein
Total Cholesterol, dpm ± sem ([3]; 12 Min Pulse, rNPC1L1(C21)): 4703 ± 231 dpm
Total Cholesterol, dpm/mg protein ± sem ([3]; 12 Min Pulse, rNPC1L1(C21)): 33985 ± 1928 dpm/mg protein
Total Cholesterol, dpm ± sem ([3]; 24 Min Pulse, rNPC1L1(C7)): 7829 ± 204 dpm
Total Cholesterol, dpm/mg protein ± sem ([3]; 24 Min Pulse, rNPC1L1(C7)): 63482 ± 368 dpm/mg protein
Total Cholesterol, dpm ± sem ([3]; 24 Min Pulse, rNPC1L1(C17)): 8192 ± 237 dpm
Total Cholesterol, dpm/mg protein ± sem ([3]; 24 Min Pulse, rNPC1L1(C17)): 62279 ± 4352 dpm/mg protein
Total Cholesterol, dpm ± sem ([3]; 24 Min Pulse, rNPC1L1(C21)): 8760 ± 293 dpm
Total Cholesterol, dpm/mg protein ± sem ([3]; 24 Min Pulse, rNPC1L1(C21)): 66165 ± 2181 dpm/mg protein
